Reference: ChEMBL document CHEMBL5390322, “Discovery of 5-Azaquinoxaline Derivatives as Potent and Orally Bioavailable Allosteric SHP2 Inhibitors” (ACS Med Chem Lett, 2023)
≈ marks a conversion by molar mass, not a printed value.

Tests used:
[1] = target: T1, Mitogen-activated protein kinase; ERK1/ERK2 (Homo sapiens, UniProt P27361+P28482); test: Inhibition of ERK1/2 phosphorylation at Thr202/Tyr204 residues in human KYSE520 cells incubated for 1 hrs by Western blot analysis; assay type: cell-based
[2] = Metabolic stability in human hepatocyte assessed as intrinsic clearance incubated for 1 to 2 hrs by LC-MS analysis; assay type: ADME, cell-based; settings: hepatocytes, time 1-2 hrs, read-out: CLH
[3] = Metabolic stability in mouse hepatocyte assessed as intrinsic clearance incubated for 1 to 2 hrs by LC-MS analysis; assay type: ADME, cell-based; settings: hepatocytes, time 1-2 hrs, read-out: CLH
[4] = Metabolic stability in mouse liver microsome assessed as intrinsic clearance at […] preincubated for 5 mins followed by NADPH addition and measured after 20 mins by LC-MS analysis; assay type: ADME; settings: liver microsomes, dose 2.5 µM, time 25 min, read-out: CLH
[5] = target: T2, Tyrosine-protein phosphatase non-receptor type 11 (Homo sapiens, UniProt Q06124); test: Allosteric inhibition of recombinant full length 6His-tagged SHP2 (2 to 527 residues) (unknown origin) expressed in Escherichia coli using DiFMUP as substrate incubated for 15 mins by microplate reader analysis
T2 sequence (Q06124 whole entry): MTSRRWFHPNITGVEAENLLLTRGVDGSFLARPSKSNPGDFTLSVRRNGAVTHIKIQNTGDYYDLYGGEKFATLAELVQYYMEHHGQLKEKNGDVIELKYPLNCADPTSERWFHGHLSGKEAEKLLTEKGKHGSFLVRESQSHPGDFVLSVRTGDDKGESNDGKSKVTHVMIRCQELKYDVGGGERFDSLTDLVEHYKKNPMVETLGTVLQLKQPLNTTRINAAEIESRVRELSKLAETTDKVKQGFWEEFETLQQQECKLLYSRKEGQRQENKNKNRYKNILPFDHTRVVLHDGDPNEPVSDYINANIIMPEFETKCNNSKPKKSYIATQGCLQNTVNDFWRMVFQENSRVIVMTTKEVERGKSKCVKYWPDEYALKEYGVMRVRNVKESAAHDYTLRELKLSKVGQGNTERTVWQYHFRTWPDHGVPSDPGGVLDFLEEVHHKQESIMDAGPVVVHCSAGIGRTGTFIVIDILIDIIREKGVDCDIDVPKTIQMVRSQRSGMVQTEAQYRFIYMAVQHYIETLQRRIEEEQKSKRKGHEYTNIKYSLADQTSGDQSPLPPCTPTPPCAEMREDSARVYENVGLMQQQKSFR

[6] = Metabolic stability in human liver microsome assessed as intrinsic clearance at […] preincubated for 5 mins followed by NADPH addition and measured after 20 mins by LC-MS analysis; assay type: ADME; settings: liver microsomes, dose 2.5 µM, time 25 min, read-out: CLH
[7] = Permeability of compound from apical to basolateral side in LLC-PK1 cells incubated for 2 hrs by LC-MS/MS analysis; assay type: ADME, cell-based, Sus scrofa; settings: pig, read-out: permeability
[8] = Solubility of the compound in FaSSIF at 1 mg/ml incubated for 24 hrs by LC-MS/MS analysis; assay type: physicochemical
[9] = target: T1, Mitogen-activated protein kinase; ERK1/ERK2; settings: KYSE520, time 1.0 hrs
[10] = Clearance in CD-1 mouse at 1 mg/kg, iv measured upto 8 hrs by LC-MS/MS method; assay type: ADME, organism-based; settings: in vivo
[11] = AUClast in CD-1 mouse at 10 mg/kg, po measured upto 24 hrs by LC-MS/MS method; assay type: ADME, organism-based; parameters: time < 24 hrs, dose 10 mg/kg, route po; settings: in vivo
[12] = Tmax in CD-1 mouse at 10 mg/kg, po measured upto 24 hrs by LC-MS/MS method; assay type: ADME, organism-based; settings: in vivo
[13] = Oral bioavailability in CD-1 mouse at 10 mg/kg measured upto 24 hrs by LC-MS/MS method; assay type: ADME, organism-based; settings: in vivo
[14] = Volume of distribution at steady state in CD-1 mouse at 1 mg/kg, iv measured upto 8 hrs by LC-MS/MS method; assay type: ADME, organism-based; settings: in vivo, read-out: Vdss
[15] = Cmax in CD-1 mouse at 10 mg/kg, po measured upto 24 hrs by LC-MS/MS method; assay type: ADME, organism-based; parameters: dose 10 mg/kg, time < 24 hrs, route po; settings: in vivo
[16] = Half life in CD-1 mouse at 1 mg/kg, iv measured upto 8 hrs by LC-MS/MS method; assay type: ADME, organism-based; settings: in vivo
[17] = target: T1, Mitogen-activated protein kinase; ERK1/ERK2; settings: KYSE520, time 1.0 hrs; remark: listed apart in the source

T1 sequence (P27361 whole entry, looked up): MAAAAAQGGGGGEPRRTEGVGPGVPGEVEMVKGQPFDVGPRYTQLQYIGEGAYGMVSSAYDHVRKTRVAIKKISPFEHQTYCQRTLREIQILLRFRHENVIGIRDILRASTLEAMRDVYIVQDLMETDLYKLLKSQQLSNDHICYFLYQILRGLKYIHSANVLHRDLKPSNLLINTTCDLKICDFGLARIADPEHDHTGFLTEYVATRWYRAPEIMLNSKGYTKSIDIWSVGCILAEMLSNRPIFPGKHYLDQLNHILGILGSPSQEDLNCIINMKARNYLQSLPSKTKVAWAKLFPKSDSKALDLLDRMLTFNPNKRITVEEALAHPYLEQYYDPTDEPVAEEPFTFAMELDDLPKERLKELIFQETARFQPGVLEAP
T1 sequence (P28482 whole entry, looked up): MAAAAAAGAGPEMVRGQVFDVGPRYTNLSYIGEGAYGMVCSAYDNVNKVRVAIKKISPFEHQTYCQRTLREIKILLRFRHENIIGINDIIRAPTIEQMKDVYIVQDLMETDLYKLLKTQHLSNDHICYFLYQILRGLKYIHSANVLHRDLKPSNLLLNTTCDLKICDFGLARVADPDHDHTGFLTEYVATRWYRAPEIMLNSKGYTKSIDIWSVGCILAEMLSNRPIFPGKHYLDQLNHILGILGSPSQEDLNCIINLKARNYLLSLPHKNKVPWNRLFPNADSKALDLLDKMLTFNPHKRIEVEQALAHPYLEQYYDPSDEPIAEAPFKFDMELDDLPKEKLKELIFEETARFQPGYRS

Structure (SMILES) | IC50 [1] [µM] | CLint scaled at 10000 µM [2] [L/h/kg] | CLint scaled [3] [L/h/kg] | CLint scaled at […] [4] [L/h/kg] | IC50 [5] [µM] | CLint scaled at […] [6] [L/h/kg] | Papp A→B at 2 h [7] [nm/s] | further results
COc1ccc2c(c1)[C@@H](N)C1(CCN(c3cnc4nc(Sc5ccnc(N)c5Cl)ccc4n3)CC1)C2 | 0.029 | 0.66 | 1.98 | 1.26 | 0.047 | 0.36 |  | 
Nc1nccc(Sc2ccc3nc(N4CCC5(CC4)Cc4ccccc4[C@H]5N)cnc3n2)c1Cl | 0.008 | 0.6 | 2.04 | 1.14 |  | 0.48 | 10 | solubility at 24 h [8]: 0.06 mg/mL (≈ 122 µM)
CC1(N)CCN(c2cnc3nc(-c4cccc(F)c4Cl)ccc3n2)CC1 | 1.184 |  |  |  | 0.344 |  | 190 | 
Nc1nccc(Sc2ccc3nc(N4[C@H]5CC[C@H]4CC(N)C5)cnc3n2)c1Cl (some centres undefined) | 0.028 | 0.12 | 1.02 | 1.08 |  | 0.18 | 30 | solubility at 24 h [8]: 1 mg/mL (≈ 2420 µM)
CC1(N)CCN(c2cnc3nc(-c4cccc(Cl)c4Cl)ccc3n2)CC1 | 0.471 | 0.12 | 0.48 | 1.5 |  | 0.18 |  | 
CC1(CN)CCN(c2cnc3nc(Sc4ccnc(N)c4Cl)ccc3n2)CC1 | 0.068 | 0.12 | 0.96 | 0.84 |  | 0.3 | 100 | solubility at 24 h [8]: 0.909 mg/mL (≈ 2190 µM)
CC1(N)CCN(c2cnc3cc(-c4cccc(Cl)c4Cl)ccc3n2)CC1 | > 20 |  |  |  |  |  |  | 
Cc1ccc2c(c1)[C@@H](N)C1(CCN(c3cnc4nc(Sc5ccnc(N)c5Cl)ccc4n3)CC1)C2 | 0.017 | 0.6 | 1.98 | 1.5 |  | 0.36 |  | 
CC1(N)CCN(c2cnc3c(Sc4cccc(Cl)c4Cl)cnn3c2)CC1 | > 20 |  |  |  | 0.634 |  |  | 
CC1(N)CCN(c2cnc3nc(Oc4cccc(Cl)c4Cl)ccc3n2)CC1 | 0.767 | 0.12 | 0.6 | 1.08 |  | 0.24 | 110 | 
COc1cccc(Sc2ccc3nc(N4CCC(C)(N)CC4)cnc3n2)c1Cl | 0.786 | 0.54 | 2.7 | 3.06 | 0.104 | 0.54 |  | 
CC1(N)CCN(c2cnc3nc(Sc4cccn5nccc45)ccc3n2)CC1 | 1.388 |  |  |  |  |  | 140 | 
CC1(N)CCN(c2cnc(-c3cccc(Cl)c3Cl)c(N)n2)CC1 | 0.254 |  |  |  |  |  |  | 
CC1(N)CCN(c2cnc3nc(Sc4ccnc(N)c4Cl)ccc3n2)CC1 | 0.058 | 0.12 | 0.48 | 1.8 |  | 0.18 | 100 | 
CNC1(C)CCN(c2cnc3nc(Sc4ccnc(N)c4Cl)ccc3n2)CC1 | 0.202 | 0.3 | 0.96 | 1.2 |  | 0.18 | 120 | solubility at 24 h [8]: 1 mg/mL (≈ 2400 µM)
COc1nccc(Sc2ccc3nc(N4CCC(C)(N)CC4)cnc3n2)c1Cl | 0.66 | 0.12 | 0.42 | 1.2 | 0.355 | 0.36 | 120 | 

Structure (SMILES) | IC50 [1] [µM] | CLint scaled at 10000 µM [2] [L/h/kg] | CLint scaled [3] [L/h/kg] | CLint scaled at […] [4] [L/h/kg] | IC50 [5] [µM] | CLint scaled at […] [6] [L/h/kg] | Papp A→B at 2 h [7] [nm/s] | further results
Nc1nccc(Sc2ccc3nc(N4CCC5(CC4)Cc4cc(Cl)ccc4[C@H]5N)cnc3n2)c1Cl | 0.078 |  |  |  | 0.035 |  |  | solubility at 24 h [8]: 0.024 mg/mL (≈ 45.8 µM)
CC1(N)CCN(c2cnc3nc(Sc4cccc(C#N)c4Cl)ccc3n2)CC1 | 0.991 | 0.42 | 0.72 | 1.38 |  | 0.54 | 90 | 
CC1(N)CCN(c2cnc3nc(-c4cccc5ccccc45)ccc3n2)CC1 | 0.51 | 0.12 | 0.48 | 1.32 |  | 0.18 | 130 | 
Nc1nccc(Sc2ccc3nc(N4CCC5(CC4)Cc4cc(F)ccc4[C@H]5N)cnc3n2)c1Cl | 0.01 | 0.72 | 2.22 | 1.02 |  | 0.3 | 60 | 
Nc1nccc(Sc2ccc3nc(N4CCC5(CC4)C[C@@H](O)C[C@H]5N)cnc3n2)c1Cl | 0.142 | 0.48 | 1.86 | 0.6 |  |  | 10 | 
C[C@@H]1OCC2(CCN(c3cnc4nc(Sc5ccnc(N)c5Cl)ccc4n3)CC2)[C@@H]1N | 0.058 | 0.3 | 0.96 | 1.44 | 0.072 | 0.18 | 130 | fIC50 [9]: 0.244 µg/mL; fIC90 [9]: 2.2 µg/mL; clearance [10]: 2.06 L/h/kg; AUC(0-t) at 24 h [11]: 2.82 µg·h/mL; Tmax [12]: 2 h; solubility at 24 h [8]: 0.894 mg/mL (≈ 1950 µM); bioavailability [13]: 58.1%; Vd [14]: 3.46 L/kg; Cmax [15]: 0.533 µg/mL; half-life [16]: 1.48 h; fIC50 [17]: 0.244 µg/mL; fIC90 [17]: 2.2 µg/mL
CC1(N)CCN(c2ccnc3c(Sc4cccc(Cl)c4Cl)cnn23)CC1 | > 20 |  |  |  | 0.53 |  |  | 
Nc1nccc(Sc2ccc3nc(N4CCC5(CC4)Cc4ncc(F)cc4[C@H]5N)cnc3n2)c1Cl | 0.006 | 0.72 | 1.56 | 2.82 |  | 0.78 | 90 | 
CC1(N)CCN(c2cnc3c(cnn3-c3cccc(Cl)c3Cl)n2)CC1 | 1.951 |  |  |  | 1.93 |  |  | 
Cc1ccc2c(n1)CC1(CCN(c3cnc4nc(Sc5ccnc(N)c5Cl)ccc4n3)CC1)[C@@H]2N | 0.017 | 0.9 | 2.1 | 2.46 |  | 0.84 | 100 | 
Nc1nccc(Sc2ccc3nc(N4C[C@H]5C[C@@H](C4)[C@H]5N)cnc3n2)c1Cl | 0.227 | 0.3 | 1.38 | 1.68 |  | 0.24 | 140 | 
Nc1nccc(Sc2ccc3nc(N4CCC[C@H](N)CC4)cnc3n2)c1Cl | 0.084 | 0.18 | 0.48 | 1.14 | 0.102 | 0.24 | 10 | 
COc1cnc2c(c1)[C@@H](N)C1(CCN(c3cnc4nc(Sc5ccnc(N)c5Cl)ccc4n3)CC1)C2 | 0.008 | 0.72 | 1.8 | 1.74 |  | 0.42 | 60 | 
CC1(N)CCN(c2cnc3nc(Sc4cccc(Cl)c4Cl)ccc3n2)CC1 | 1.068 |  |  |  | 0.047 |  |  | 
CC1(N)CCN(c2ccc(Sc3cccc(Cl)c3Cl)n3nccc23)CC1 | > 20 |  |  |  | 3.69 |  |  | 
CC1(N)CCN(c2ncc(Sc3cccc(Cl)c3Cl)n3nccc23)CC1 | 2.785 |  |  |  | 0.208 |  |  | 
